In ChEMBL document CHEMBL1201862, “PubChem BioAssay data set” (2004):
Calls of active or inactive are those of the source.

Legend:
Cannabinoid receptor 2 [1] = target: T1, Cannabinoid receptor 2 (Homo sapiens, UniProt P34972); assay: SAR analysis of antagonists of the Cannabinoid Receptor 2 using an Image-Based Assay - Set 2. [Related pubchem assays (depositor defined):AID1961, AID1965]; format: functional
Cannabinoid receptor 1 [2] = target: T2, Cannabinoid receptor 1 (Homo sapiens, UniProt P21554); assay: SAR analysis of agonists of the Cannabinoid Receptor 1 using an Image-Based Assay - Set 3. [Related pubchem assays (depositor defined):AID1961, AID1965]; format: functional
T2 sequence (P21554 whole entry): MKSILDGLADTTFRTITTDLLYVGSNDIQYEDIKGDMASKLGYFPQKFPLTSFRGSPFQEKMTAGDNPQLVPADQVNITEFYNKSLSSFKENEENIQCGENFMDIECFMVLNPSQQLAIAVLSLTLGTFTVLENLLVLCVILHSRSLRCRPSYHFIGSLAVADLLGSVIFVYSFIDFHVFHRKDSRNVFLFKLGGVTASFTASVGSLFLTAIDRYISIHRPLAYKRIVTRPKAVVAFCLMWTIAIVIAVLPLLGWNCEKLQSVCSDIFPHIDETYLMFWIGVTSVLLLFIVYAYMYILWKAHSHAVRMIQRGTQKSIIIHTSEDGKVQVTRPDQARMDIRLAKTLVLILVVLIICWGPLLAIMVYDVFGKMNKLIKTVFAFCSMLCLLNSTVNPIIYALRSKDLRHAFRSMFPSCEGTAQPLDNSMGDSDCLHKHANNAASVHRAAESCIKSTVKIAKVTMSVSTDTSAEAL

[3] = target: T3, G-protein coupled receptor 35 (Homo sapiens, UniProt Q9HC97); assay: SAR analysis of Agonists of the GPR35 Receptor using an Image-Based Assay - Set 3. [Related pubchem assays (depositor defined):AID1961, AID1965]; format: functional
T3 sequence (Q9HC97 whole entry): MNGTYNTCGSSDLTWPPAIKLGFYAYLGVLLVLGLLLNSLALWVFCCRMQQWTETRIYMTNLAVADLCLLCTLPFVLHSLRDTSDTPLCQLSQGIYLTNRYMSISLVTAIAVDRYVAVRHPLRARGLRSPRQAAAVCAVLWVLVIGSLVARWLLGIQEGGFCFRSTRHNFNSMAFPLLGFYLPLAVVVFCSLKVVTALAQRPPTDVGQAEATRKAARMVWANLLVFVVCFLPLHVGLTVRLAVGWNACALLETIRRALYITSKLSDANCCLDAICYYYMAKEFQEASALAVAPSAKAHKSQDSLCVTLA

Cannabinoid receptor 2 [4] = target: T1, Cannabinoid receptor 2; assay: SAR analysis of agonists of the Cannabinoid Receptor 2 using an Image-Based Assay - Set 2. [Related pubchem assays (depositor defined):AID1961, AID1965]; format: functional
[5] = target: T3, G-protein coupled receptor 35; assay: SAR analysis of Antagonists of the GPR35 Receptor using an Image-Based Assay - Set 4. [Related pubchem assays (depositor defined):[…]]; format: functional
Cannabinoid receptor 1 [6] = target: T2, Cannabinoid receptor 1; assay: SAR analysis of antagonists of the Cannabinoid Receptor 1 using an Image-Based Assay - Set 3. [Related pubchem assays (depositor defined):AID1961, AID1965]; format: functional
[7] = target: G-protein coupled receptor 55 (Homo sapiens, UniProt Q9Y2T6); assay: SAR analysis of selective Agonists of GPR55 using an Image-Based Assay - Set 2. [Related pubchem assays (depositor defined):AID1961, AID1965]; format: functional
Chain of G-protein coupled receptor 55 (Q9Y2T6 whole entry): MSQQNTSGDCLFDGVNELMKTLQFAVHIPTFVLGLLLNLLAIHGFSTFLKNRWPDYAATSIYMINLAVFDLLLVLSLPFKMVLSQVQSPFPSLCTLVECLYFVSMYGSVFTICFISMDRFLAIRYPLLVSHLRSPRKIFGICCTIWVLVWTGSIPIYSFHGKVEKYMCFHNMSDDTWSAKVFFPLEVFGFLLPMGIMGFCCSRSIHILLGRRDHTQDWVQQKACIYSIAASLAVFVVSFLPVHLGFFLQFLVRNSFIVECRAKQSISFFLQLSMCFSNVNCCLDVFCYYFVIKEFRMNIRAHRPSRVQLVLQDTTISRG

[8] = target: Voltage-dependent T-type calcium channel subunit alpha-1H (Homo sapiens, UniProt O95180); assay: human CACNA1H calcium influx blockade – cell-based, synthetic library set 1, calcium flux (AID 493022); format: functional
Chain of Voltage-dependent T-type calcium channel subunit alpha-1H (O95180 whole entry): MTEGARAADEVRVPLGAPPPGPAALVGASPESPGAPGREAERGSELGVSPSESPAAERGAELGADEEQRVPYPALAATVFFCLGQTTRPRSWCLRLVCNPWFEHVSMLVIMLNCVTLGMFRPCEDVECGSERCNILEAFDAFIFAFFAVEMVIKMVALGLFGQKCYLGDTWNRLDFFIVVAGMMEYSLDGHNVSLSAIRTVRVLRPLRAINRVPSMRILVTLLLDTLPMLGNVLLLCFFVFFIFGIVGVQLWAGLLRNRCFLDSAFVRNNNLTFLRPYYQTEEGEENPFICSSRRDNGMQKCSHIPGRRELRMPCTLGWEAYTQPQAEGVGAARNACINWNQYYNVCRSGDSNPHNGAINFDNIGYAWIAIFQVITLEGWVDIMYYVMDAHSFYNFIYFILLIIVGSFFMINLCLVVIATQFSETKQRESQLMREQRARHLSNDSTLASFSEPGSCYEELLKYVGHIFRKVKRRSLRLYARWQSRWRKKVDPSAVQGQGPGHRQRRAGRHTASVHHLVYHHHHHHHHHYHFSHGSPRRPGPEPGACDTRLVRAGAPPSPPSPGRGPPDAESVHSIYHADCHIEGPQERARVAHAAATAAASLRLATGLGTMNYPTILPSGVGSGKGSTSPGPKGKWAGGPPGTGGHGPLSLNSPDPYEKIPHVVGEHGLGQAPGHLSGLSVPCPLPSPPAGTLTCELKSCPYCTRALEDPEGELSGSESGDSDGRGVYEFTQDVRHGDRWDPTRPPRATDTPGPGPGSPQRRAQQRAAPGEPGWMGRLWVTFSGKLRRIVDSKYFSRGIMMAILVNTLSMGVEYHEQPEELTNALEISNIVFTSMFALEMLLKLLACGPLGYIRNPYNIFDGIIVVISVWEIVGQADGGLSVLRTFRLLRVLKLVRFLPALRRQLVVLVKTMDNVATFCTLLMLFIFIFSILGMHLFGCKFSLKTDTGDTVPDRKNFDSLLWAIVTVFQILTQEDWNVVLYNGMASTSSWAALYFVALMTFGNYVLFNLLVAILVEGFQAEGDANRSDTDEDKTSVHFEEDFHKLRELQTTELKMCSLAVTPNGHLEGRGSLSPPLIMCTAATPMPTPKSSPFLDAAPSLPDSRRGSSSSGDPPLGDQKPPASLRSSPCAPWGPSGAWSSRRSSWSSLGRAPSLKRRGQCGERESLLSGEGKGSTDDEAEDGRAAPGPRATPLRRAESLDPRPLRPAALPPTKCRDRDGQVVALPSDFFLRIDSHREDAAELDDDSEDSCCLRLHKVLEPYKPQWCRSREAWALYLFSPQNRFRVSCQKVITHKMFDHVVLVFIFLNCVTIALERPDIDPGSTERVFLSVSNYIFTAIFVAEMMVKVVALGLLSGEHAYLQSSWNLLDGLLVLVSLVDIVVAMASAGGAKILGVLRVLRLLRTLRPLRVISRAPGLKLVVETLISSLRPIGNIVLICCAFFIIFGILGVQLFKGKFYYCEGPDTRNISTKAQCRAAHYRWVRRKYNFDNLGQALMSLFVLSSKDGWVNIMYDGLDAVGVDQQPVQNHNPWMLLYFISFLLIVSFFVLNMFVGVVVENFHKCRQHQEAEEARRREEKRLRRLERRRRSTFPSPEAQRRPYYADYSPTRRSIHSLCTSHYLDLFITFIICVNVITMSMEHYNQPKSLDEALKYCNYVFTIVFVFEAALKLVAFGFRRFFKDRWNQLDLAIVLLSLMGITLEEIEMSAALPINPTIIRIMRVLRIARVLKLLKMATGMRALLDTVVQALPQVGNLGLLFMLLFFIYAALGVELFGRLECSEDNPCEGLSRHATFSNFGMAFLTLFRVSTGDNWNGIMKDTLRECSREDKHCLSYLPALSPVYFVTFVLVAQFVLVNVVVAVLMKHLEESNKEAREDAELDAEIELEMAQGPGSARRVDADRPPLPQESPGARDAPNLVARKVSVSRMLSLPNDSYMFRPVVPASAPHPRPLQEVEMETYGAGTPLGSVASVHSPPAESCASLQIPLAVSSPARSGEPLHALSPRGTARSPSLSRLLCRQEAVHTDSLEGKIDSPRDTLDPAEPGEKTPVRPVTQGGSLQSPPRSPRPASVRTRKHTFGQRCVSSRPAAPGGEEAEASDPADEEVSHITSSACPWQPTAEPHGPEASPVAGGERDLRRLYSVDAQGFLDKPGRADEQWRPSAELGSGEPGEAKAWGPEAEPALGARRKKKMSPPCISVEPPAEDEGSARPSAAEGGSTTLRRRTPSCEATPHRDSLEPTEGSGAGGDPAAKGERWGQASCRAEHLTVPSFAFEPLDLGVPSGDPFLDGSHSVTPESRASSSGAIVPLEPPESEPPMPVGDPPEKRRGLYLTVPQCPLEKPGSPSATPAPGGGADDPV

Coagulation factor XII = target: T4, Coagulation factor XII (Homo sapiens, UniProt P00748); assay: Factor XIIa Dose Response Confirmation from Single Well HTS. [Related pubchem assays (depositor defined):AID701]; format: functional
T4 sequence (P00748 whole entry): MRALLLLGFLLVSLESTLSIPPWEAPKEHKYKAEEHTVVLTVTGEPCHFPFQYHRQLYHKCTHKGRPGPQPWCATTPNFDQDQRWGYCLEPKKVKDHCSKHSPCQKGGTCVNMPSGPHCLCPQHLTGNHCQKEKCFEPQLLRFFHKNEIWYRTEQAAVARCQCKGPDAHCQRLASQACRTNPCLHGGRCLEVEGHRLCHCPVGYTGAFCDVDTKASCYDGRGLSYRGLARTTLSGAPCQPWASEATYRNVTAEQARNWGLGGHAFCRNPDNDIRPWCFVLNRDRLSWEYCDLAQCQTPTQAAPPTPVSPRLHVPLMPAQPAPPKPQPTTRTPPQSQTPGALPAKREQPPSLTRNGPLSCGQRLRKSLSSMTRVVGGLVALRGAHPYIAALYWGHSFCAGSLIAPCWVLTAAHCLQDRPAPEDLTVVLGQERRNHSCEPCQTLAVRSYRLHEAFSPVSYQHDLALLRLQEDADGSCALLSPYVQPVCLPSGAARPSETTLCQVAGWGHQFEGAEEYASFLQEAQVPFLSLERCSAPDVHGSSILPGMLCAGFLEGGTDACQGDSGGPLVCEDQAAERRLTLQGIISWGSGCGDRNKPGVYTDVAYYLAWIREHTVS

[9] = target: T5, Sentrin-specific protease 6 (Homo sapiens, UniProt Q9GZR1); format: functional;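 also: Luminescence-based dose-response confirmatory assay of SENP6 inhibition, following up an ultra-high-throughput screen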
T5 sequence (Q9GZR1 whole entry): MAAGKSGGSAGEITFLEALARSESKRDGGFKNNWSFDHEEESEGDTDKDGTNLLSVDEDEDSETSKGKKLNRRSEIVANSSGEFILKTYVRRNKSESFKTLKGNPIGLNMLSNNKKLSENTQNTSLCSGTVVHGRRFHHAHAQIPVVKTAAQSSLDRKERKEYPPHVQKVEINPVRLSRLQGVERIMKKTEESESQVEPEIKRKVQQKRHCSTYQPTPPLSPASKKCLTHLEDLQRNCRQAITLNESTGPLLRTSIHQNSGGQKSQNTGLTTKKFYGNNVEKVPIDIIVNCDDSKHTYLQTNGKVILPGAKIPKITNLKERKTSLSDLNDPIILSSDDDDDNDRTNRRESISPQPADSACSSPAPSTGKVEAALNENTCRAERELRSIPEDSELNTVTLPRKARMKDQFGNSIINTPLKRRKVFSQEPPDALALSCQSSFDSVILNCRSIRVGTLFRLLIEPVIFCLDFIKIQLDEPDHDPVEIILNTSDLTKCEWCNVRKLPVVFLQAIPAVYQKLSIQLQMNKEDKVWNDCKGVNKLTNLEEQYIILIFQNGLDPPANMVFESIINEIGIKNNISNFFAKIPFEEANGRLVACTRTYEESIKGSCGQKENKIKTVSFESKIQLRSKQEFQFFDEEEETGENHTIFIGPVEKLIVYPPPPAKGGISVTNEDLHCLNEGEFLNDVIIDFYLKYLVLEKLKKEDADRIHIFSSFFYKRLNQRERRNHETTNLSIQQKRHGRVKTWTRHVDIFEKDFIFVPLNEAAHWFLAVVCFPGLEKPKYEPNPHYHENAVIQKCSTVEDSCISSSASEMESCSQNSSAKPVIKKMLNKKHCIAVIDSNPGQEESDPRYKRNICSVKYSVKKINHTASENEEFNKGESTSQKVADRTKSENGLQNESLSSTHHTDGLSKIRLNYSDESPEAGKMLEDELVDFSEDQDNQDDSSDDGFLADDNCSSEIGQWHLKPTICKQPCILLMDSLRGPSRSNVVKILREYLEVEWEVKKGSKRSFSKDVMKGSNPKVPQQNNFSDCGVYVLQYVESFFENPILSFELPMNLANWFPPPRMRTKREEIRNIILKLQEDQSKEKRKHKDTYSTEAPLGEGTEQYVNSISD

[10] = target: T6, Sentrin-specific protease 8 (Homo sapiens, UniProt Q96LD8); format: functional;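 also: luminescence read-out of SENP8 inhibition, dose-response confirmation following an ultra-high-throughput screen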
T6 sequence (Q96LD8 whole entry): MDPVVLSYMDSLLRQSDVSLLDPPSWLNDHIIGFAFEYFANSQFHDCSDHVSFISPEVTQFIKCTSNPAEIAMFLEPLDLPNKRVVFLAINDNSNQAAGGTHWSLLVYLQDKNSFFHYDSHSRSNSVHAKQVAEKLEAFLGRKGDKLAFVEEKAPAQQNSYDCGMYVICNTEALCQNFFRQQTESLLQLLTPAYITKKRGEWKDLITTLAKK

[11] = target: Photoreceptor-specific nuclear receptor (Homo sapiens, UniProt Q9Y5X4); format: functional, cell-based;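 also: CHO-S cells with Gal4-NCOR and VP16-NR2E3 two-hybrid luciferase reporter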
Chain of Photoreceptor-specific nuclear receptor (Q9Y5X4 whole entry, the tested form may be a part): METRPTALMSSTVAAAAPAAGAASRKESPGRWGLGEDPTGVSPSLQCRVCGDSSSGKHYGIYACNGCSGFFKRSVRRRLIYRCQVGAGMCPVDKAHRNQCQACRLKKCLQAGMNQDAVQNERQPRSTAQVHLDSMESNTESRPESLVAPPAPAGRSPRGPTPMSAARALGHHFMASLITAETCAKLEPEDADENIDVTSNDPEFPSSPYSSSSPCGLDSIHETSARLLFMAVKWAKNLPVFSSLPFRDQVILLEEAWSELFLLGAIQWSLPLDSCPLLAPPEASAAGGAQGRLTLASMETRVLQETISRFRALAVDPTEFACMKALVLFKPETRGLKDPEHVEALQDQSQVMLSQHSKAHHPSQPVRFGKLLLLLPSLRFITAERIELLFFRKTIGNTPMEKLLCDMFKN

[12] = THP-1 cell cytotoxicity, dose response, cytotoxicity control for non-replicating M. tuberculosis project (AID 489025); format: functional
[13] = viability of HCT116 lacking mutant beta-catenin – cell-based, human colon tumor, dose response (AID 1045); format: functional;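 also: HCT116 colon tumor cells with beta catenin knocked out; cells exposed to compound for 60 hours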
INS1 = assay: INS-1E survival protection against cytokine death – cell-based, luminescence, retest, dose response (AID 449756); format: functional; conditions: Rattus norvegicus;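 also: cell death triggered by IL-1 beta plus TNF-alpha plus IFN-gamma mixture; protective hits raise ATP signal compared with cytokine alone wells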
Caspase-3 = target: T7, Caspase-3 (Homo sapiens, UniProt P42574); format: functional;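 also: Dose-response selectivity test against caspase-3 for candidate inhibitors of sentrin-specific proteases (SENPs)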
T7 sequence (P42574 whole entry): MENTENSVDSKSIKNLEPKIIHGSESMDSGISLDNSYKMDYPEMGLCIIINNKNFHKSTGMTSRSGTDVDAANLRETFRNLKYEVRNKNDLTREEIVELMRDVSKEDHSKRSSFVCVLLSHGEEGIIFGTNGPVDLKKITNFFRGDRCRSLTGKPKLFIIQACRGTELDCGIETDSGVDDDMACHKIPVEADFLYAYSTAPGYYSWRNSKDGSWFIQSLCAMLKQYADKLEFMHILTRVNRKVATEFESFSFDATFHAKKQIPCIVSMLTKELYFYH

[14] = Vero E6 cell cytotoxicity, dose response, cytotoxicity control for non-replicating M. tuberculosis project, secondary assay (AID 492998); format: functional, VeroE6; conditions: Vero C1008
[15] = target: T8, Sentrin-specific protease 7 (Homo sapiens, UniProt Q9BQF6); format: functional;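 also: Luminescence-based dose-response confirmation of ultra-high-throughput screening hits, measuring inhibition of SENP7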
T8 sequence (Q9BQF6 whole entry): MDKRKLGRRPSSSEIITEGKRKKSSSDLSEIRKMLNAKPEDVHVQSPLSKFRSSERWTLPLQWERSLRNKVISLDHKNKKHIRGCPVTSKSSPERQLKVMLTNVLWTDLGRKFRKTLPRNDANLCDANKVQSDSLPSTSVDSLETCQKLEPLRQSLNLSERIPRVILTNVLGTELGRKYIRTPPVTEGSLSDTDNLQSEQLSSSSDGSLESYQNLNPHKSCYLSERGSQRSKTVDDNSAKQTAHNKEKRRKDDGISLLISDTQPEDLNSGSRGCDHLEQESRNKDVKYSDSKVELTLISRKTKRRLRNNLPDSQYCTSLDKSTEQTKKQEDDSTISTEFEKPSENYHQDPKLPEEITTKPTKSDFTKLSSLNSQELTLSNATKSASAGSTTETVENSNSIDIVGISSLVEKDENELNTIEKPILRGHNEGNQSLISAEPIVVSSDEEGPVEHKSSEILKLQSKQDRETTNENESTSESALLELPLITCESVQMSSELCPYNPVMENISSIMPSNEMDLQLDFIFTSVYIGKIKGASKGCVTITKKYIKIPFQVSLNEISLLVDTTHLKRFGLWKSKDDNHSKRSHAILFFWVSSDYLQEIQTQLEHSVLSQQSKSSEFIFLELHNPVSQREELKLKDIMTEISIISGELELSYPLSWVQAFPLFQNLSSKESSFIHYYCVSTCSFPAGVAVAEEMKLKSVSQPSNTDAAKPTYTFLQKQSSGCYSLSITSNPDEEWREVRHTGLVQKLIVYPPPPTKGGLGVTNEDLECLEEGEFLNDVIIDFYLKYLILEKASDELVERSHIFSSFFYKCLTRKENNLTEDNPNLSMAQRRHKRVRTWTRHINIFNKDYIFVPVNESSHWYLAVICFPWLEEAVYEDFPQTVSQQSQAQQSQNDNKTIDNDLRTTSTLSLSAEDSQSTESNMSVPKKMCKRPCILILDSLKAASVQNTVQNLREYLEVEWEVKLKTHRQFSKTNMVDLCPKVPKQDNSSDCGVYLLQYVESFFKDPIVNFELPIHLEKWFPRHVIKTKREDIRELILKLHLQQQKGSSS

[16] = HepG2 cell cytotoxicity, dose response, cytotoxicity control for non-replicating M. tuberculosis project (AID 489018); format: functional; conditions: Mycobacterium tuberculosis
[17] = viability of PTEN-deleted HCT116 cells – cell-based, HCT116 PTEN knockout, dose response (AID 1047); format: functional;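 also: HCT116 colon tumor cells with PTEN knocked out; cells exposed to compound for 60 hours before readout; potency for loss of cell viability measured by luminescence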

T1 sequence (P34972 whole entry): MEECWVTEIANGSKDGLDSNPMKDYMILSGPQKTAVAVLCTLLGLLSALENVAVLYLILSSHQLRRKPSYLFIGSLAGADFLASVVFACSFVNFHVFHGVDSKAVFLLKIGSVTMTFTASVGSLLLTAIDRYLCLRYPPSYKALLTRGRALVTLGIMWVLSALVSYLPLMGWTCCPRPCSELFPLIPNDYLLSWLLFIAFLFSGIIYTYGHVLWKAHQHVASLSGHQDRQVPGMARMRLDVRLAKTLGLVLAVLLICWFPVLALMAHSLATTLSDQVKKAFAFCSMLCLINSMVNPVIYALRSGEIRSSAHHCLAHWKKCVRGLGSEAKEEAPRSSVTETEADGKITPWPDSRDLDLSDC

Structure (SMILES): COc1ccc(S(=O)(=O)N2CCOCC2)cc1NC(=O)c1ccc2c(c1)OCO2
- IC50 (Cannabinoid receptor 2 [1]): > 32 µM (inactive)
- EC50 (Cannabinoid receptor 1 [2]): > 32 µM (inactive)
- EC50 [3]: > 32 µM (inactive)
- EC50 (Cannabinoid receptor 2 [4]): > 32 µM (inactive)
- IC50 [5]: > 32 µM (inactive)
- IC50 (Cannabinoid receptor 1 [6]): > 32 µM (inactive)
- EC50 [7]: 18 µM (inactive)

Structure (SMILES): Cc1ccc(-c2nnc(NC(=O)COc3ccc(Cl)cc3)o2)cc1C
- EC50 [8]: 1.4 µM (active)

Structure (SMILES): COc1ccc(/C=c2/sc3n(c2=O)NC2(c4ccccc4)N(C)C(=O)N(C)C2(c2ccccc2)N=3)cc1 (stereo not given)
- IC50 (Coagulation factor XII): > 50 µM (inactive)

Structure (SMILES): COc1ccccc1-n1c(=O)oc2ccc(Cl)cc2c1=O
- IC50 [9]: 16.5 µM (active)
- IC50 [10]: 22.6 µM (active)
- IC50 [11]: 5.1 µM (active)
- CC50 [12]: 19.8 µM (active)
- EC50 [13]: 11.9 µM (active)
- AC50 (INS1): 8.62 µM (active)
- IC50 (Caspase-3): 26.9 µM (active)
- CC50 [14]: > 20 µM (active)
- IC50 [15]: 11.5 µM (active)
- CC50 [16]: > 20 µM (active)
- EC50 [17]: 11.7 µM (active)
